What all share (assay type): cell-based, human
The subject of series [1] is MET1 cells. Briefly: Phototoxicity assay in MET1 cells (irradiation 2.5 J/cm², resazurin). The following applies: Homo sapiens, MET-1, light or radiation study, MET1 cells, treated 24 h. On the procedure:
(§1) The […] SCC cell line (human squamous cell carcinoma) was obtained from Ximbio (London, UK), HaCaT (immortalized human keratinocytes cell line) was obtained from Addexbio (San Diego, CA, USA) and WM983b (human metastatic melanoma cell line) was obtained from Rockland (Pottstown, PA, USA). […] Cells were cultivated in an incubator (Sanyo MCO-19AIC-UV) at 37 °C in a 5% CO2 humidified atmosphere. […] The plates were incubated for 24 h, followed by washing with PBS supplemented with calcium and magnesium. Afterwards, complete culture medium without phenol red was added, and the plates were irradiated from above and submitted to a dose of 2.5 J/cm2 of irradiation emitted by different wavelength light sources coupled with a homemade irradiation system created in our laboratory. […] This experiment was performed in an incubator that was able to keep plates in a dark environment; therefore, the dark control plates were protected from any light source, as well as the others, with the exception of the irradiation that each one was submitted to. Plates were incubated for another 24 h, and finally, the resazurin assay was performed as previously described in Section 3.3. For the phototoxicity study using WM983b cells, plates were prepared at a cell density of 40,000 cells/cm2, and cells were treated with MB and AO only.
For orientation: The colour change of resazurin is a common sign of viable cells or microbes.

Assay in series [2]: as above
As to conditions: human, MET1 squamous cell carcinoma cells; MET1 cells, 457 nm, all investigated concentrations (1.25-40 µM); read-out: cell viability under 457 nm light. On the procedure:
as §1

Series [3] relates to MET1 cells. Briefly: Intracellular ROS production in MET1 cells (DHE fluorescence). As to conditions: 5 µM. On the procedure:
MET1 cells were seeded at a density of 20,000 cells/cm² in 24-well plates. After 24 h, cells were treated with MB and AO diluted in culture medium at low concentrations (1.25 µM, 2.5 µM and 5 µM). The medium culture was replaced by the prepared samples. Plates were incubated for 24 h; then, cells were washed with medium, and DMEM without phenol red was added. The plates were submitted to 2.5 J/cm² irradiation under red light at 640 nm for MB and 457 nm blue light for AO. Dihydroethidium (DHE) was used to evaluate ROS production. For this assay, the medium was removed after irradiation, and 20 µM of DHE diluted in medium was added. The plate was incubated for 20 min, washed with medium and incubated 20 min with Hoechst 33342 (5 µg/mL), which was used to stain the cells’ nuclei. After removing the excess dye, culture medium was added, and the cells were immediately observed using a Nikon Ti-S epifluorescence microscope. Cells were examined using a 40 × objective in random areas of 4 different wells under the same treatment condition. Images were analyzed using ImageJ software, and the intensity was measured according to integrated density values of red fluorescence.

The next series deals with WM983b cells. Nature of the series: Cytotoxicity (resazurin cell viability) in WM983b cells. The following applies: for IC50: Homo sapiens, 1.25-320 µM. From the text:
(§2) The MET1 SCC cell line (human squamous cell carcinoma) was obtained from Ximbio (London, UK), HaCaT (immortalized human keratinocytes cell line) was obtained from Addexbio (San Diego, CA, USA) and WM983b (human metastatic melanoma cell line) was obtained from Rockland (Pottstown, PA, USA). Cells were maintained in Dulbecco’s Modified Eagle Medium (DMEM) supplemented with 10% (v/v) fetal bovine serum (FBS) for MET1 and HaCaT and 5% (v/v) for WM983b cells, and Pen–Strep (penicillin 100 U/mL and streptomycin 100 µg/mL). Cells were cultivated in an incubator (Sanyo MCO-19AIC-UV) at 37 °C in a 5% CO2 humidified atmosphere.
(§3) First, 96-well plates were seeded with HaCaT and MET1 cells at a density of 20,000 cells/cm² and incubated for 24 h. After that period, the culture medium was replaced by culture medium containing different compounds: MB, AO, GV, QT, CUR, EGCG, PHE, NEO and BIPY. The compounds were diluted in culture medium using a range of concentrations of each compound from 1.25 µM to 320 µM (in quadruplicate). The medium was aspirated from the 96-well plate and replaced by the samples diluted in medium. Cells cultured with complete medium and cells cultured with medium supplemented with 0.2% (v/v) or 10% (v/v) of DMSO were used as negative (NC), solvent (SC) and positive controls (PC), respectively. The plates were incubated for 24 and 48 h, followed by evaluation of cell viability using a colorimetric assay. Cells containing samples were washed with PBS supplemented with calcium and magnesium; then, resazurin solution diluted in DMEM at 0.02 mg/mL was added. The medium containing resazurin was also dispensed in wells without cells, which were used as references. After 3 h of incubation, the absorbance was measured in a microplate reader (ELX800UV, Biotek Instruments) at wavelengths of 570 nm and 600 nm. The corrected absorbance was proportional to cell viability. Propagation of uncertainties was used to calculate the combined standard uncertainty. For the cytotoxicity study using WM983b cells, plates were seeded at a density of 40,000 cells/cm², and cells were treated only with MB and AO.

For another series, the system named is HaCaT cells. Briefly: Cytotoxicity (resazurin cell viability) in HaCaT cells. As to conditions: Homo sapiens, HaCaT cells, 1.25-320 µM.
From the text: as §2, §3

In series [4] the test system is MET1 cells. Nature of the series: Cytotoxicity (resazurin cell viability) in MET1 cells. As to conditions: Homo sapiens, MET-1, MET1 cells, 1.25-320 µM.
From the text: as §2, §3

Where two headings read alike, the source gives them in different places.

For orientation: IC50 means the midpoint of a concentration-inhibition curve. For orientation: viability means the share of living cells, or the viability signal relative to a control.

For `CN(C)c1ccc2cc3ccc(N(C)C)cc3nc2c1` [Acridine orange, acridine orange], the IC50 with MET1 cells [1] (254 nm light, 2.5 J/cm², read-out: IC50 254 nm) was 7.1 µM; with MET1 cells [1] (457 nm light, 2.5 J/cm², read-out: IC50 457 nm), 0.4 µM; with MET1 cells [1] (583 nm light, 2.5 J/cm², read-out: IC50 583 nm), 4.1 µM; with MET1 cells [1] (640 nm light, 2.5 J/cm², read-out: IC50 640 nm), 6.6 µM; in the series with MET1 cells [1] (dark control (no irradiation), read-out: IC50 Dark) it was 11.5 µM; in the series with WM983b cells (24 h exposure, read-out: IC50 WM983b cells 24 h), 25.2 µM. Also, the IC50 with WM983b cells (48 h exposure, read-out: IC50 WM983b cells 48 h) was 6.6 µM; with HaCaT cells (24 h exposure, read-out: IC50 HaCaT Cells 24 h), 10.5 µM; in the series on HaCaT cells (48 h exposure, read-out: IC50 HaCaT Cells 48 h), 6.5 µM; in the series with MET1 cells [4] (24 h exposure, read-out: IC50 MET1 Cells 24 h), 15.1 µM; in the series on MET1 cells [4] (48 h exposure, read-out: IC50 MET1 Cells 48 h), 10.3 µM. In addition, the viability at 24 h in series [2] was less than 10%. In addition, the “increase in fluorescence (DHE, integrated density) vs irradiated control” value with MET1 cells [3] (457 nm irradiation 2.5 J/cm², vs irradiated control 0 µM) is “about 2.6 fold”. Besides, in the series on MET1 cells [3] (non-irradiated, vs non-irradiated control 0 µM), the “increase in fluorescence intensity (DHE, integrated density) vs non-irradiated control” value is on record as “about 1.8 fold”. Moreover, in the series on WM983b cells (24 or 48 h), the “concentration above which the relative cell population falls below 70%” value was greater than 20 µM.
